Among the data in patent US8426447B2, “Spiro-tricyclic ring compounds as beta-secretase modulators and methods of use” (Amgen Inc., priority 2008, dated 2013) are IC50 values, retold here.

The structures appear in SMILES notation. A value given as a limit tells only on which side of the number the result lay.

The target in assay [1] is T1, BACE1 (Homo sapiens, UniProt P56817). Put plainly: In Vitro BACE Cell-based Assay (HEK cell assay): Aβ40 in conditioned medium of cells stably expressing Amyloid Precursor Protein, sandwich ELISA. Conditions: read-out: HEK cell assay. An outline of the steps: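 First, APP-stable cells grow 24 h at 37° C., 5% CO2. Next, test compounds are added for 24 h (10 doses, 0.1% DMSO). Finally, medium Aβ40 is determined by pAb40/6E10 sandwich ELISA with Europium TRF, and IC50 is calculated.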
T1 sequence (P56817 46-501, species assumed): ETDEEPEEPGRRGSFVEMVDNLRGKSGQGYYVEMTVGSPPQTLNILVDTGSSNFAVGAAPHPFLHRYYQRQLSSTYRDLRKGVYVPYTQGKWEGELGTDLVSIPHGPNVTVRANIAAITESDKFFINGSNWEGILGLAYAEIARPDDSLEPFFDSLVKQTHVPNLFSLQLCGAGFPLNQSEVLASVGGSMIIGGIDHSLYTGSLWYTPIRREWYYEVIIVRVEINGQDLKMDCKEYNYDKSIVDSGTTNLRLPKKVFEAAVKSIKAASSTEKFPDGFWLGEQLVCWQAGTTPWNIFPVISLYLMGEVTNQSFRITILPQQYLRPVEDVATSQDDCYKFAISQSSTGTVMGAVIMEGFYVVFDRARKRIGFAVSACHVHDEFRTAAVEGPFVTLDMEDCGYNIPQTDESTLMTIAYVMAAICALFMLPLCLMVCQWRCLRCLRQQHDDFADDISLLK
For orientation: In an ELISA, binding on a coated surface is turned into a signal by an enzyme label.

Assay [2] addresses T1, BACE1. Kind of assay: In Vitro Enzymatic BACE FRET (Fluorescence Resonance Energy Transfer) Assay. The class given is biochemical. Conditions: read-out: BACE1 FRET assay. An outline of the steps: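 Buffer 0.05 M acetate pH 4.2 with 10% DMSO final and 100 uM genapol; reaction started with 50 nM FRET peptide substrate (fluorophore/quencher flanking BACE cleavage site), incubated one hour. Stopped with Tris buffer raising pH to neutrality, then fluorescence read.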

The mark [3] stands for this setting: HEK cell-based assay, Aβ40 in conditioned medium, IC50 class symbols.
Setting [4] is: in vitro BACE FRET enzyme assay, IC50 class symbols.

For the compound `NC1=N[C@]2(CO1)c1cnccc1Oc1ccc(-c3cccnc3)cc12` [compound 557], the IC50 is 1 to 5 µM on BACE1 [1] (Table IV, class symbols) and more than 5 µM at BACE1 [2] (Table IV, class symbols).
Turning to `Cc1ccc2c(c1)Oc1ccc(Br)cc1C21COC(N)=N1` (stereo not shown) [Example 37, 2′-bromo-6′-methylspiro[1,3-oxazole-4,9′-xanthen]-2-amine], the IC50 is more than 5 µM on BACE1 [1] (Table 1, Aβ40, 24 h incubation) and more than 5 µM on BACE1 [2] (Table 1).
`CC(C)(O)C#Cc1cnc2c(c1)[C@]1(COC(N)=N1)c1cc(-c3ccc(F)nc3)ccc1O2` [compound 794]: the IC50 on BACE1 [1] (Table IV, class symbols) is less than 0.1 µM; at BACE1 [2] (Table IV, class symbols), less than 0.1 µM.
With `CC(C)(C)CCOc1nccc2c1[C@]1(COC(N)=N1)c1cc(-c3cncnc3)ccc1O2` [compound 984], the IC50 at BACE1 [1] and at BACE1 [2] was 0.1 to 1 µM each time.
As for `COC(C)(C)C#Cc1ccc2c(c1)[C@@]1(COC(N)=N1)c1cc(OCC(C)(C)O)ccc1O2` [compound 768], the IC50 at BACE1 [1] and at BACE1 [2] was 0.1 to 1 µM throughout.
Regarding `NC1=N[C@@]2(CO1)c1ccccc1Oc1ccc(-c3cc4ccccc4o3)cc12` [compound 587], the IC50 lay within 1 to 5 µM at BACE1 [1] (Table IV, class symbols) and 1 to 5 µM on BACE1 [2] (Table IV, class symbols).
In the case of `CC(C)(C)COc1ccc2c(c1)[C@]1(COC(N)=N1)c1cc(-c3ccccc3)ccc1O2` [Example 85, (4S)-2′-(2,2-dimethylpropoxy)-7′-phenylspiro[1,3-oxazole-4,9′-xanthen]-2-amine], the IC50 was 1 to 5 µM on BACE1 [1] (Table II, Aβ40, 24 h incubation) and less than 0.1 µM on BACE1 [2] (Table II).
Regarding `NC1=N[C@]2(CO1)c1cc(-c3cccc(F)c3)ccc1Oc1ncc(C3=CCOCC3)cc12` [compound 690], the IC50 was more than 5 µM at BACE1 [1] and 1 to 5 µM at BACE1 [2].
As for `CC(C)(C)COc1ccc2c(c1)[C@]1(COC(N)=N1)c1cc(-c3cccc(S(C)(=O)=O)c3)ccc1O2` [compound 915], the IC50 at BACE1 [1] (Table IV, class symbols) is 1 to 5 µM; on BACE1 [2] (Table IV, class symbols), less than 0.1 µM.
As for `CC(C)(C)/C=C/c1ccc2c(n1)[C@]1(COC(N)=N1)c1cc(-c3cccnc3)ccc1O2` [compound 398], the IC50 on BACE1 [1] (setting [3]) and at BACE1 [2] (setting [4]) was less than 0.1 µM throughout.
As for `CC1(COc2ccc3c(c2)[C@]2(COC(N)=N2)c2cc(-c4cccnc4)cnc2O3)COC1` [compound 165], the IC50 on BACE1 [1] (Table III, IC50's in uM ranges) is less than 0.1 µM; on BACE1 [2] (Table III, IC50's in uM ranges) it was less than 0.1 µM.
Regarding `COc1ccc2c(c1)[C@@]1(COC(N)=N1)c1cc(Br)cc(F)c1O2` [compound 406], the IC50 on BACE1 [1] (setting [3]) and on BACE1 [2] (setting [4]) was more than 5 µM each time.
`CC1(COc2cnc3c(c2)[C@]2(COC(N)=N2)c2cc(-c4cc(F)ccc4F)ccc2O3)COC1` [compound 412]: the IC50 on BACE1 [1] (setting [3]) and at BACE1 [2] (setting [4]) was less than 0.1 µM throughout.
As for `CCCOc1ccc2c(c1)C1(COC(N)=N1)c1cc(-c3cncnc3)ccc1O2` (stereo not shown) [Example 9, 2′-propoxy-7′-(5-pyrimidinyl)spiro[1,3-oxazole-4,9′-xanthen]-2-amine], the IC50 at BACE1 [1] (Table 1, Aβ40, 24 h incubation) is 0.1 to 1 µM; at BACE1 [2] (Table 1), less than 0.1 µM.
On to `COc1ccc2c(c1)[C@]1(COC(N)=N1)c1cc(NC(=O)C(F)(F)F)ccc1O2` [compound 651], for which the IC50 on BACE1 [1] (Table IV, class symbols) is 1 to 5 µM; on BACE1 [2] (Table IV, class symbols), 0.1 to 1 µM.
As to `CC(C)(C)COc1ccc2c(c1)[C@]1(COC(N)=N1)c1cc(-c3cnccn3)ccc1O2` [Example 131, (S)-2′-(neopentyloxy)-7′-(pyrazin-2-yl)-5H-spiro[oxazole-4,9′-xanthen]-2-amine], the IC50 at BACE1 [1] (Table III, IC50's in uM ranges) is less than 0.1 µM; at BACE1 [2] (Table III, IC50's in uM ranges), less than 0.1 µM.
Consider `CC(C)(O)C#Cc1cnc2c(c1)[C@]1(COC(N)=N1)c1cc(-c3ccccc3)ccc1O2` [compound 647], for which the IC50 at BACE1 [1] (Table IV, class symbols) was less than 0.1 µM; on BACE1 [2] (Table IV, class symbols), less than 0.1 µM.
For the compound `NC1=N[C@]2(CO1)c1cc(-c3cccnc3)ccc1Oc1cnc(Cl)cc12` [compound 955], the results for the IC50 at BACE1 [1] and on BACE1 [2] were more than 5 µM and 1 to 5 µM, respectively.
`COC(C)(C)C#Cc1cnc2c(c1)[C@]1(COC(N)=N1)c1cc(-c3cncnc3)ccc1O2` [compound 822]: the IC50 was less than 0.1 µM on BACE1 [1] (Table IV, class symbols) and less than 0.1 µM on BACE1 [2] (Table IV, class symbols).
For `CC(C)(C)OC(=O)n1c(-c2ccc3c(c2)[C@@]2(COC(N)=N2)c2ccccc2O3)cc2ccccc21` [compound 568], the IC50 is more than 5 µM at BACE1 [1] (Table IV, class symbols) and more than 5 µM on BACE1 [2] (Table IV, class symbols).
Regarding `COc1ccc2c(c1)[C@@]1(COC(N)=N1)c1cc(-c3ccc(OCC4CC4)nc3)cnc1O2` [compound 668], the IC50 at BACE1 [1] and on BACE1 [2] was 0.1 to 1 µM each time.
For the compound `CC(C)(C)OCCOc1ccc2c(c1)[C@]1(COC(N)=N1)c1cc(-c3cccnc3)ccc1O2` [compound 159], the IC50 at BACE1 [1] (Table III, IC50's in uM ranges) is 0.1 to 1 µM; at BACE1 [2] (Table III, IC50's in uM ranges), less than 0.1 µM.
As for `NC1=N[C@]2(CO1)c1cc(-c3cccc(OC(F)(F)F)c3)ccc1Oc1ncccc12` [compound 595], the IC50 at BACE1 [1] (Table IV, class symbols) lay within 1 to 5 µM; at BACE1 [2] (Table IV, class symbols), 0.1 to 1 µM.
As to `CC(C)(C)C#Cc1cc2c(cn1)Oc1ccc(-c3cncnc3)cc1[C@@]21COC(N)=N1` [compound 512, (5S)-3-(3,3-dimethyl-1-butyn-1-yl)-7-(5-pyrimidinyl)spiro[chromeno[2,3-c]pyridine-5,4′-[1,3]oxazol]-2′-amine], the IC50 at BACE1 [1] (HEK cells) and on BACE1 [2] was less than 0.1 µM throughout.
For `NC1=N[C@]2(CO1)c1ccncc1Oc1ccc(-c3cccnc3)cc12` [compound 675], the IC50 was 1 to 5 µM on BACE1 [1] and 0.1 to 1 µM at BACE1 [2].
Regarding `N#Cc1ccc(-c2cc3c(cn2)Oc2ccc(-c4cccnc4F)cc2[C@@]32COC(N)=N2)cc1` [compound 372], the IC50 at BACE1 [1] (setting [3]) and at BACE1 [2] (setting [4]) was less than 0.1 µM in each case.
Take `CC(C)(O)COc1ccc2c(c1)[C@]1(COC(N)=N1)c1cc(-c3cccnc3)ccc1O2` [Example 135, (S)-1-(2-amino-2′-(pyridin-3-yl)-5H-spiro[oxazole-4,9′-xanthene]-7′-yloxy)-2-methylpropan-2-ol]: the IC50 on BACE1 [1] (Table III, IC50's in uM ranges) was less than 0.1 µM; on BACE1 [2] (Table III, IC50's in uM ranges), less than 0.1 µM.
With `NC1=N[C@@]2(CO1)c1cc(-c3cccnc3)ccc1Oc1ccc(-c3cnoc3)cc12` [compound 623], the IC50 at BACE1 [1] (Table IV, class symbols) was less than 0.1 µM; at BACE1 [2] (Table IV, class symbols), less than 0.1 µM.
Consider `NC1=N[C@@]2(CO1)c1cc(-c3cncnc3)ccc1Oc1ccc(-c3ccc(F)nc3)cc12` [compound 991], for which the IC50 on BACE1 [1] and at BACE1 [2] was less than 0.1 µM each time.
For the compound `CC(C)(C)C[C@H](F)c1ccc2c(c1)[C@]1(COC(N)=N1)c1cc(-c3cncnc3)ccc1O2` [116a, (4S)-2′-((1S)-1-fluoro-3,3-dimethylbutyl)-7′-(5-pyrimidinyl)spiro[1,3-oxazole-4,9′-xanthen]-2-amine], the IC50 on BACE1 [1] (Table III, IC50's in uM ranges) is 0.1 to 1 µM; at BACE1 [2] (Table III, IC50's in uM ranges) it was less than 0.1 µM.
With `CCCOc1cc2c(cc1F)Oc1ccc(-c3ccc(F)nc3)cc1[C@@]21COC(N)=N1` [compound 920], the IC50 at BACE1 [1] (Table IV, class symbols) was 0.1 to 1 µM; on BACE1 [2] (Table IV, class symbols), less than 0.1 µM.
Regarding `NC1=N[C@@]2(CO1)c1cc(-c3cccnc3)ccc1Oc1ccc(-c3nccs3)cc12` [compound 666], the IC50 at BACE1 [1] and at BACE1 [2] was less than 0.1 µM throughout.
Regarding `CC(C)(C)OC(=O)Cc1ccc2c(c1)[C@]1(COC(N)=N1)c1cc(-c3cncnc3)ccc1O2` [compound 765], the IC50 on BACE1 [1] and at BACE1 [2] was 0.1 to 1 µM each time.
Take `CC(C)(C)OC(=O)/C=C/c1ccc2c(c1)[C@]1(COC(N)=N1)c1cc(-c3cccnc3)ccc1O2` [compound 995]: the IC50 was in the range of 1 to 5 µM on BACE1 [1] and 0.1 to 1 µM on BACE1 [2].
For the compound `CC(C)(C)COc1ccc2c(c1)[C@@]1(COC(N)=N1)c1cc(-c3cccnc3F)cnc1O2` [compound 952], the IC50 on BACE1 [1] and on BACE1 [2] was less than 0.1 µM in each case.
